Consider 17 compounds from patent US20240116988A1, “ANTI-ROR1 MACROCYCLIC PEPTIDES AND COMPOSITIONS” (BRISTOL-MYERS SQUIBB COMPANY, priority 2022, published 2024).

Structures are written as SMILES. Positions of bridges follow the written chain, without caps; N, C: chain ends. Non-standard residues stand in square brackets, D forms with d. Residues, ends and D or L forms follow the SMILES beside them. NMeF = CN[C@@H](Cc1ccccc1)C(=O)O; PEG5 = NCCOCCOCCOCCOCCOCCC(=O)O; NMeL = CN[C@@H](CC(C)C)C(=O)O; NMeNle = CCCC[C@H](NC)C(=O)O; NMeA = CN[C@@H](C)C(=O)O; Nle = CCCC[C@H](N)C(=O)O; AEEA = NCCOCCOCC(=O)O; Sar = CNCC(=O)O

This experiment has as its target T1, human ROR1 (Homo sapiens, UniProt Q01973).
T1 construct: host or cells: HEK 293T cells, Tet-on system induced with doxycycline
Put plainly: ROR1 high content cell-based binding assay. Particulars: read-out: ROR1 Binding 293T Human HC Cell Based Assay IC50. As to the method:
ROR1 high content cell-based binding assay: Human embryonic kidney 293T cells (293T) expressing human ROR1 with Tet-on system by doxycycline were used (Arctic-488134) for the assessment of inhibition of the binding of fluorescently-labeled competing peptide (“Probe”) that specifically binds to human ROR1. […] Cryopreserved vials were thawed in a 37° C. water bath. Cells were washed in assay culture media [DMEM (Life Technologies Inc. Cat. […] Cat. No. 15140-122) and […] dox] and diluted 1.0×10^5 cells/mL. Cells were seeded into PDL-coated 384 well plates (BD Falcon Cat. No. 356663) at 2,000 cells/20 μL. Plates were allowed to incubate for 10 minutes at room temperature and then transferred to a 37° C./5% CO2 incubator for overnight incubation. The next day, 125 nL of the test compound was added using an ECHO followed by the addition of 5 μL/well of 5-FAM-labeled probe to cells at a final concentration of 30 nM. Sample were incubated for 1 hour at 37° C. for 1 hour, followed by 3 washes in […] of dPBS. Cells were fixed by adding 8% (w/v) formaldehyde (Sigma Cat. No. 252549), 20 μg/mL Hoechst (Thermo Scientific Cat. No. 62249) in PBS for 20 minutes at room temperature. The plates were washed 3 more times in dPBS and 15 μl of PBS was left in the wells following the last wash. The plates were sealed, and data was using obtained using a CellInsight NXT High Content Screening Platform IC903000 (Thermo Scientific).

T1 sequence (Q01973 30-937): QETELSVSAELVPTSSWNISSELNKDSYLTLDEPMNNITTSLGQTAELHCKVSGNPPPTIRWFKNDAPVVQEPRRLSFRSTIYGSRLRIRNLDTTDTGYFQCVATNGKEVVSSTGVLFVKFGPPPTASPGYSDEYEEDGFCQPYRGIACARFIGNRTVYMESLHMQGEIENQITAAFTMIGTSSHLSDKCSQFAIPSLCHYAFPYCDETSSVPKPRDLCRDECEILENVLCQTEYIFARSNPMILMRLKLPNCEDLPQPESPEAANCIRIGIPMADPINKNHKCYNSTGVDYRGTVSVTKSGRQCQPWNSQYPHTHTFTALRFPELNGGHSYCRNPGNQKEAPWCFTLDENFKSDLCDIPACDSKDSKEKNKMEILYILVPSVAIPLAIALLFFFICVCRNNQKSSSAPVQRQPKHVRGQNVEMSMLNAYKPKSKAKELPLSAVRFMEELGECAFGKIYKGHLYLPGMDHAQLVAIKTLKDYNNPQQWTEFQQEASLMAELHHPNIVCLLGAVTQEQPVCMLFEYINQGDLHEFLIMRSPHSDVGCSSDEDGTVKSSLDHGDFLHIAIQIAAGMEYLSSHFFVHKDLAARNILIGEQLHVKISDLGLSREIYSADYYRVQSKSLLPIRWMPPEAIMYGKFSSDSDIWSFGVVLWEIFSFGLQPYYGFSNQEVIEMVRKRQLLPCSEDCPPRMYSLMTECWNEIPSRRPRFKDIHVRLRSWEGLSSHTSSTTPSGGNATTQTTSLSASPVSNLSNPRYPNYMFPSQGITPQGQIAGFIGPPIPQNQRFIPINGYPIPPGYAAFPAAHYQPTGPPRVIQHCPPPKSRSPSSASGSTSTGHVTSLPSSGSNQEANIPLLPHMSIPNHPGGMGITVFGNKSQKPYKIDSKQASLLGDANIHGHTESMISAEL

Broadly, the IC50 is the concentration at which inhibition is half-maximal. Turning to `CC(C)C[C@@H]1NC(=O)[C@H](Cc2ccccc2)NC(=O)CSC[C@@H](C(=O)NCC(=O)NCCOCCOCC(=O)O)NC(=O)[C@H](C)NC(=O)[C@H](Cc2ccc(O)cc2)NC(=O)[C@H](Cc2ccc(O)cc2)NC(=O)[C@H](Cc2c[nH]c3ccccc23)NC(=O)CNC(=O)[C@H](Cc2ccc(O)cc2)NC(=O)[C@H](CCCNC(=N)N)NC(=O)[C@H](C(C)C)NC(=O)[C@H](Cc2c[nH]c3ccccc23)NC1=O` [Example 1087] ({CH2CO}-FLWVRYGWYYACG[AEEA]-OH; thioether N-12), the 50% inhibitory concentration (IC50) was determined as 131 nM.
Next, `CC(C)C[C@@H]1NC(=O)[C@H](Cc2ccc(O)cc2)NC(=O)[C@H](Cc2ccccc2)NC(=O)CSC[C@@H](C(=O)NCCOCCOCC(=O)O)NC(=O)[C@H](CC(C)C)NC(=O)[C@H](Cc2ccccc2)N(C)C(=O)[C@H](Cc2ccc(O)cc2)NC(=O)[C@H](Cc2c[nH]c3ccccc23)NC(=O)CNC(=O)[C@H](CO)NC(=O)[C@H](Cc2ccc(O)cc2)NC(=O)[C@H](C(C)C)NC1=O` [Example 1090] ({CH2CO}-FYLVYSGWY[NMeF]LC[AEEA]-OH; thioether N-12): 67 nM; `CSCC[C@@H]1NC(=O)[C@H](Cc2ccccc2)N(C)C(=O)CNC(=O)[C@H](Cc2ccc(O)cc2)NC(=O)[C@H](Cc2ccccc2)NC(=O)CSC[C@@H](C(N)=O)NC(=O)[C@H](Cc2c[nH]c3ccccc23)NC(=O)[C@H](Cc2ccc(O)cc2)NC(=O)[C@H](CC(C)C)NC1=O` [Example 1109] ({CH2CO}-FYG[NMeF]MLYWC-NH2; thioether N-9): 574 nM.
Next, `CC(C)C[C@@H]1NC(=O)[C@H](Cc2ccc(O)cc2)NC(=O)[C@H](CC(N)=O)NC(=O)CSC[C@@H](C(=O)NCC(N)=O)NC(=O)[C@H](CC(C)C)NC(=O)[C@H](Cc2ccccc2)N(C)C(=O)[C@H](Cc2ccc(O)cc2)NC(=O)[C@H](Cc2c[nH]c3ccccc23)NC(=O)CNC(=O)[C@H](CO)NC(=O)[C@H](Cc2ccc(O)cc2)NC(=O)[C@H](C(C)C)NC1=O` [Example 1076] ({CH2CO}-NYLVYSGWY[NMeF]LCG-NH2; thioether N-12): 518 nM.
Next, `CC(C)C[C@@H]1NC(=O)[C@H](Cc2ccc(O)cc2)NC(=O)[C@H](Cc2ccccc2)NC(=O)CSC[C@@H](C(N)=O)NC(=O)[C@H](CC(C)C)NC(=O)[C@H](Cc2ccccc2)N(C)C(=O)[C@H](Cc2ccc(O)cc2)NC(=O)[C@H](Cc2c[nH]c3ccccc23)NC(=O)CNC(=O)[C@H](CO)NC(=O)[C@H](Cc2ccc(O)cc2)NC(=O)[C@H](C(C)C)NC1=O` [Example 1036] ({CH2CO}-FYLVYSGWY[NMeF]LC-NH2; thioether N-12): 7 nM; `CC[C@H](C)[C@@H]1NC(=O)[C@H](Cc2ccccc2)NC(=O)CSC[C@@H](C(=O)NCC(=O)NCCOCCOCC(=O)N[C@@H](CCCCN)C(N)=O)NC(=O)[C@H](C)NC(=O)[C@H](Cc2ccccc2)NC(=O)[C@H](Cc2ccc(O)cc2)NC(=O)[C@H](Cc2c[nH]c3ccccc23)NC(=O)CNC(=O)[C@H](CCC(=O)O)NC(=O)[C@H](Cc2ccc(O)cc2)NC(=O)[C@H](C(C)C)NC(=O)[C@H](Cc2c[nH]c3ccccc23)NC1=O` [Example 1081] ({CH2CO}-FIWVYEGWYFACG[AEEA]K-NH2; thioether N-12): 177 nM.
Regarding `CN1C(=O)CNC(=O)[C@H](Cc2ccc(O)cc2)NC(=O)[C@H](Cc2ccccc2)NC(=O)CSC[C@@H](C(N)=O)NC(=O)[C@H](Cc2c[nH]c3ccccc23)NC(=O)[C@H](Cc2ccc(O)cc2)NC(=O)[C@H](Cc2ccccc2)NC(=O)[C@H](CC(N)=O)NC(=O)[C@@H]1Cc1ccccc1` [Example 1103] ({CH2CO}-FYG[NMeF]NFYWC-NH2; thioether N-9), the IC50 is 923 nM.
In the case of `CCCC[C@@H]1NC(=O)[C@H](Cc2ccc(O)cc2)NC(=O)[C@H](Cc2c[nH]c3ccccc23)NC(=O)[C@H](C)N(C)C(=O)[C@H](CCCNC(=N)N)NC(=O)[C@H](CO)NC(=O)[C@H](CO)NC(=O)[C@H](Cc2c[nH]c3ccccc23)NC(=O)[C@H](Cc2ccc(O)cc2)NC(=O)[C@H](Cc2ccccc2)NC(=O)CSC[C@@H](C(N)=O)NC(=O)[C@H](CC(C)C)N(C)C1=O` [Example 1096] ({CH2CO}-FYWSSR[NMeA]WY[Nle][NMeL]C-NH2; thioether N-12) it was 4 nM; in that of `CC(C)C[C@@H]1NC(=O)[C@H](Cc2ccc(O)cc2)NC(=O)[C@H](Cc2ccccc2)NC(=O)CSC[C@@H](C(=O)NCC(N)=O)NC(=O)[C@H](CC(C)C)NC(=O)[C@H](Cc2ccccc2)N(C)C(=O)[C@H](Cc2ccc(O)cc2)NC(=O)[C@H](Cc2c[nH]c3ccccc23)NC(=O)CNC(=O)[C@H](CO)NC(=O)[C@H](CO)NC(=O)[C@H](C(C)C)NC1=O` [Example 1026] ({CH2CO}-FYLVSSGWY[NMeF]LCG-NH2; thioether N-12), 59 nM; in that of `CC(C)[C@@H]1NC(=O)CN(C)C(=O)[C@H](CCCNC(=N)N)NC(=O)[C@H](Cc2ccccc2)NC(=O)CSC[C@@H](C(N)=O)NC(=O)[C@H](C(C)C)NC(=O)[C@H](Cc2c[nH]c3ccccc23)NC(=O)[C@H](Cc2ccc(O)cc2)NC(=O)[C@H](Cc2c[nH]c3ccccc23)NC(=O)CNC(=O)[C@H](Cc2c[nH]c3ccccc23)NC(=O)[C@H](CCCNC(=N)N)NC1=O` [Example 1097] ({CH2CO}-FR[Sar]VRWGWYWVC-NH2; thioether N-12), 63 nM.
Next, `CC(C)C[C@@H]1NC(=O)[C@H](Cc2ccc(O)cc2)NC(=O)[C@H](Cc2ccccc2)NC(=O)CSC[C@@H](C(=O)NCC(N)=O)NC(=O)[C@H](CC(C)C)NC(=O)[C@H](Cc2ccccc2)N(C)C(=O)[C@H](Cc2ccc(O)cc2)NC(=O)[C@H](Cc2c[nH]c3ccccc23)NC(=O)[C@H](CCC(=O)O)NC(=O)[C@H](CO)NC(=O)[C@H](Cc2ccc(O)cc2)NC(=O)[C@H](C(C)C)NC1=O` [Example 1053] ({CH2CO}-FYLVYSEWY[NMeF]LCG-NH2; thioether N-12): 760 nM; `CC(C)C[C@@H]1NC(=O)[C@H](Cc2ccccc2)N(C)C(=O)[C@H](Cc2ccc(O)cc2)NC(=O)[C@H](Cc2c[nH]c3ccccc23)NC(=O)CNC(=O)[C@H](CO)NC(=O)[C@H](Cc2ccc(O)cc2)NC(=O)[C@H](C(C)C)NC(=O)[C@H](CCC(=O)O)NC(=O)[C@H](Cc2ccc(O)cc2)NC(=O)[C@H](Cc2ccccc2)NC(=O)CSC[C@@H](C(=O)NCC(N)=O)NC1=O` [Example 1052] ({CH2CO}-FYEVYSGWY[NMeF]LCG-NH2; thioether N-12): 367 nM.
In the case of `CCCC[C@H]1C(=O)N[C@@H](CC(C)C)C(=O)N[C@H](C(=O)NCCOCCOCC(=O)N[C@@H](CCCCN)C(N)=O)CSCC(=O)N[C@@H](Cc2ccccc2)C(=O)N[C@@H](Cc2ccc(O)cc2)C(=O)N[C@@H](Cc2c[nH]c3ccccc23)C(=O)N[C@@H](CO)C(=O)N[C@@H](CO)C(=O)N[C@@H](CCCNC(=N)N)C(=O)N(C)[C@@H](C)C(=O)N[C@@H](Cc2c[nH]c3ccccc23)C(=O)N[C@@H](Cc2ccc(O)cc2)C(=O)N1C` [Example 1079] ({CH2CO}-FYWSSR[NMeA]WY[NMeNle]LC[AEEA]K-NH2; thioether N-12) it was 25 nM.
Consider `CC(C)C[C@@H]1NC(=O)[C@H](Cc2ccccc2)NC(=O)CSC[C@@H](C(N)=O)NC(=O)[C@H](C(C)C)NC(=O)[C@H](Cc2ccccc2)N(C)C(=O)[C@H](CC(C)C)NC(=O)[C@H](Cc2c[nH]c3ccccc23)NC(=O)CN(C)C(=O)CNC(=O)[C@H](C(C)C)NC(=O)[C@H](Cc2c[nH]c3ccccc23)NC1=O` [Example 1203] ({CH2CO}-FLWVG[Sar]WL[NMeF]VC-NH2; thioether N-11), for which the IC50 came to 86 nM.
As for `CC(C)C[C@@H]1NC(=O)[C@H](Cc2ccc(O)cc2)NC(=O)[C@H](Cc2ccccc2)NC(=O)CSC[C@@H](C(=O)NCC(N)=O)NC(=O)[C@H](CC(C)C)NC(=O)[C@H](Cc2ccccc2)N(C)C(=O)[C@H](Cc2ccc(O)cc2)NC(=O)[C@H](Cc2c[nH]c3ccccc23)NC(=O)CNC(=O)[C@H](Cc2ccc(O)cc2)NC(=O)[C@H](Cc2ccc(O)cc2)NC(=O)[C@H](C(C)C)NC1=O` [Example 1045] ({CH2CO}-FYLVYYGWY[NMeF]LCG-NH2; thioether N-12), the IC50 is 9 nM.
With `CC(C)C[C@@H]1NC(=O)[C@H](Cc2ccc(O)cc2)NC(=O)[C@H](Cc2ccccc2)NC(=O)CSC[C@@H](C(=O)NCCOCCOCCOCCOCCOCCC(=O)N[C@@H](CCCCN)C(N)=O)NC(=O)[C@H](CC(C)C)NC(=O)[C@H](Cc2ccccc2)N(C)C(=O)[C@H](Cc2ccc(O)cc2)NC(=O)[C@H](Cc2c[nH]c3ccccc23)NC(=O)CNC(=O)[C@H](CO)NC(=O)[C@H](Cc2ccc(O)cc2)NC(=O)[C@H](C(C)C)NC1=O` [Example 1083] ({CH2CO}-FYLVYSGWY[NMeF]LC[PEG5]K-NH2; thioether N-12), the half-inhibitory concentration (IC50) is 22 nM.
On to `CC(C)C[C@@H]1NC(=O)[C@H](Cc2ccc(O)cc2)NC(=O)[C@H](Cc2ccccc2)NC(=O)CSC[C@@H](C(=O)NCC(N)=O)NC(=O)[C@H](CC(C)C)NC(=O)[C@H](Cc2ccccc2)N(C)C(=O)[C@H](Cc2ccc(O)cc2)NC(=O)[C@H](Cc2c[nH]c3ccccc23)NC(=O)CNC(=O)[C@H](CCCCN)NC(=O)[C@H](Cc2ccc(O)cc2)NC(=O)[C@H](C(C)C)NC1=O` [Example 1019] ({CH2CO}-FYLVYKGWY[NMeF]LCG-NH2; thioether N-12), for which the half-inhibitory concentration (IC50) was 27 nM.
